Reference: paper PMC7194175 (Nature plants, 2019)

Experiments:
CYP72A9 = molecular target: T1, CYP72A9 (Arabidopsis thaliana, UniProt F4IW82); assay: feeding of recombinant WAT11 yeast culture, GC-MS of products; assay type: cell-based; settings: AtCPR1 co-expressed, 30 °C, 16 h
T1 sequence (F4IW82 1-508): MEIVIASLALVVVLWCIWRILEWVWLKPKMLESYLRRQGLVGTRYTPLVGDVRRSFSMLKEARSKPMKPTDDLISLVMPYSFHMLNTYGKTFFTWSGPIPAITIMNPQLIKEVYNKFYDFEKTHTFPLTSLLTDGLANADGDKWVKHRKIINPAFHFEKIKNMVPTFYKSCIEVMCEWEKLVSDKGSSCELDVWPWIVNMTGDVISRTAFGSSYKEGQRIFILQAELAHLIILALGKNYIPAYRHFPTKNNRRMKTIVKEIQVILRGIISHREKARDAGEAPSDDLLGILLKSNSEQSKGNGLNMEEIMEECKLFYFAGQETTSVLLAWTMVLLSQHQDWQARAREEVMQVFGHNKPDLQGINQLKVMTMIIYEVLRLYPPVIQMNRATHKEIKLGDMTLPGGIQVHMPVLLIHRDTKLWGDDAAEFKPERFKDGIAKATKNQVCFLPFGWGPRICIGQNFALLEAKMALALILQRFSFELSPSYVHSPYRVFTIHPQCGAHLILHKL

CYP72A15 = molecular target: T2, CYP72A15 (Arabidopsis thaliana, UniProt Q9LUC5); assay: as above; assay type: cell-based; settings: AtCPR1 co-expressed; 30 °C, 16 h
T2 sequence (Q9LUC5 1-512): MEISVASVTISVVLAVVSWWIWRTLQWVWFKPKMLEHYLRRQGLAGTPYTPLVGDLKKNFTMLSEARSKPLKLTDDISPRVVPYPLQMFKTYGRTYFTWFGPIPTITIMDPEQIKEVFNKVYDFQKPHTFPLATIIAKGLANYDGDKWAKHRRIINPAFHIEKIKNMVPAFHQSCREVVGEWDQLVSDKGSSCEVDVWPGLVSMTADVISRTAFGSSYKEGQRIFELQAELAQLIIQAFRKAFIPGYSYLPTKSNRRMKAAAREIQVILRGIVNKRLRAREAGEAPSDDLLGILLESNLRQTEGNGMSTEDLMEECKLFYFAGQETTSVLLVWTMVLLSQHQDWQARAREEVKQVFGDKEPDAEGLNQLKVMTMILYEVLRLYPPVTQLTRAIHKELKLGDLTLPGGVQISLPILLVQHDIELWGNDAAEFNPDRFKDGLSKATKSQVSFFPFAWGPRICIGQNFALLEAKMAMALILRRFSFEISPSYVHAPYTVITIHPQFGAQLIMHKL

Row | SMILES | feeding of recombinant WAT11 yeast culture, GC-MS of products (CYP72A9; 13-hydroxylation to GA1) | feeding of recombinant WAT11 yeast culture, GC-MS of products (CYP72A9; 13-hydroxylation to GA53) | feeding of recombinant WAT11 yeast culture, GC-MS of products (CYP72A15)
1 | C=C1C[C@]23C[C@H]1CC[C@H]2[C@@]12CC[C@H](O)[C@@](C)(C(=O)O1)[C@H]2[C@@H]3C(=O)O [GA4] | hydroxylating GA4, GA9, and GA12 at C13 position to produce GA1, GA20, and GA53 |  | 
2 | C=C1C[C@]23C[C@H]1CC[C@H]2[C@]1(C)CCC[C@@](C)(C(=O)O)[C@H]1[C@@H]3C(=O)O [GA12] |  | hydroxylating GA4, GA9, and GA12 at C13 position to produce GA1, GA20, and GA53 | utilized ent-kaurenoic acid, GA12 and GA9 as substrates rather than GA4
